{"source": "patent US11857519B2", "about": "“Compounds and methods for the targeted degradation of enhancer of zeste homolog 2 polypeptide” (Arvinas Operations, Inc., priority 2016, dated 2024)", "target": "T1, EZH2 (Homo sapiens, UniProt Q15910)", "T1 construct": "Protocol of the Cellular Assay of Target Protein Degradation (VCaP Cells, ELISA); endogenous in cells; host or cells: VCaP cells", "T1 sequence (Q15910 whole entry)": "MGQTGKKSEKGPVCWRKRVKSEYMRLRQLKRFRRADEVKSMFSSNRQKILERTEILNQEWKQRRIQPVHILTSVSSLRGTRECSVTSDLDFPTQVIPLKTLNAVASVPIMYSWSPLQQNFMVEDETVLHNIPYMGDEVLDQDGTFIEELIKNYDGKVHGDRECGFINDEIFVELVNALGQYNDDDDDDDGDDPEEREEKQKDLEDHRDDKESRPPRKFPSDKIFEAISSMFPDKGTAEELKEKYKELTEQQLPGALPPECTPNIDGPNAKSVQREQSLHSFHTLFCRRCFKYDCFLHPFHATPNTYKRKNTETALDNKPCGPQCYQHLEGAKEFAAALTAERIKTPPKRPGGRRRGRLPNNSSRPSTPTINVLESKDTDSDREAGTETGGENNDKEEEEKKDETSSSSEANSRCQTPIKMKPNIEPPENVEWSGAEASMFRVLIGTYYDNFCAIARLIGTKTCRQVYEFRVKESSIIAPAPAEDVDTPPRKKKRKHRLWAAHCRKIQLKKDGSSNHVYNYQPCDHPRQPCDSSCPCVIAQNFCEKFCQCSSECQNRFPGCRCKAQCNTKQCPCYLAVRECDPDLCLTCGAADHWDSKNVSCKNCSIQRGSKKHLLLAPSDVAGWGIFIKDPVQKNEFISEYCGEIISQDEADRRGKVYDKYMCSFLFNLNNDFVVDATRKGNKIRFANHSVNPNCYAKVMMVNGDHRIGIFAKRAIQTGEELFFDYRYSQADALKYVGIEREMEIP", "T1 sequence (O75530 whole entry partner)": "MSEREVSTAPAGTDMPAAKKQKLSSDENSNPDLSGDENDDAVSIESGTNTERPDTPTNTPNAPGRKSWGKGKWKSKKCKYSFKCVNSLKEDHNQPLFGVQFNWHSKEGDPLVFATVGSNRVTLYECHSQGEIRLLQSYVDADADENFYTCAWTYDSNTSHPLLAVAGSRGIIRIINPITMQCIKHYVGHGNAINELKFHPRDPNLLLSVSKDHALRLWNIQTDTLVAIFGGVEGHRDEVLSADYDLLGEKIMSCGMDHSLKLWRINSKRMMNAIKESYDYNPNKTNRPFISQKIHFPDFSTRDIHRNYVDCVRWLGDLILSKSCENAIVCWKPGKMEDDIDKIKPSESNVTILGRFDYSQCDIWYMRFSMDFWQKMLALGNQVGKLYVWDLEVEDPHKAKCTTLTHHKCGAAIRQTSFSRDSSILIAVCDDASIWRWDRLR", "T1 sequence (Q15022 whole entry partner)": "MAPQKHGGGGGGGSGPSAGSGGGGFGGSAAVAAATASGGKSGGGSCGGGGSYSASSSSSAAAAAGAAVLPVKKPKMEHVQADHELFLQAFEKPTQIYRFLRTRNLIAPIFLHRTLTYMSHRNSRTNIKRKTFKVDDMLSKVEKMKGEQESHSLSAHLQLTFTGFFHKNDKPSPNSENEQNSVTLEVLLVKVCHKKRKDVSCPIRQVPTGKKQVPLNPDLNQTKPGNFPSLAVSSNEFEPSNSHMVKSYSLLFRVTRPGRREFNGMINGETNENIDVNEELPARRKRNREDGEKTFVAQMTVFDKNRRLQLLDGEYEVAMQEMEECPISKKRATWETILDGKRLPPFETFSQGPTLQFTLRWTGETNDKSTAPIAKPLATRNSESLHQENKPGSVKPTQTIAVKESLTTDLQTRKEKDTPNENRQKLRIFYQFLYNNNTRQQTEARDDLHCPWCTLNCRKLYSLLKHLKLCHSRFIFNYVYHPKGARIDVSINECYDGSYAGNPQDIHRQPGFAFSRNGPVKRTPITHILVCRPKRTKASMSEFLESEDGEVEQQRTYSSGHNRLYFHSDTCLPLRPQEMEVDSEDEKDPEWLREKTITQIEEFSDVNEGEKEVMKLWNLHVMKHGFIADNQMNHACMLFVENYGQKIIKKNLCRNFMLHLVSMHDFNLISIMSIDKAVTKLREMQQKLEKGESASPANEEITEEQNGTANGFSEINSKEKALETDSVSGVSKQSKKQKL", "experiment": "Cellular assay of target protein degradation (VCaP cells, ELISA)", "assay_type": "cell-based", "conditions": "4 hours, protein degradation range at indicated concentration (relative to DMSO control)", "summary_of_the_method": "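EZH2 level measured by sandwich ELISA (TMB, A450 minus A562 background) in lysates of VCaP cells. Cells had been cultured at least 3 days in 5% CSS RPMI before 4 h compound exposure in 0.1% DMSO.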"}
{"molecule": "Cc1cc(C)c(CNC(=O)c2c(C)n(C(C)C3CCN(C(=O)COCCOCCOCCNc4cccc5c4C(=O)N(C4CCC(=O)NC4=O)C5=O)CC3)c3ccccc23)c(=O)[nH]1", "note": "(stereo not drawn) [Compound 7, N-[(4,6-dimethyl-2-oxo-1,2-dihydropyridin-3-yl)methyl]-1-[1-(1-{1-[2-(2,6-dioxopiperidin-3-yl)-1,3-dioxo-2,3-dihydro-1H-isoindol-4-yl]-4,7,10-trioxa-1-azadodecanoyl}piperidin-4-yl)ethyl]-2-methyl-1H-indole-3-carboxamide]", "values": [{"measurement": "percent target protein degradation class", "result": "B (B = degradation between 30% and 60%)"}]}
{"molecule": "Cc1cc(C)c(CNC(=O)c2cc(-c3ccc(CN4CCN(CCOCC(=O)N[C@H](C(=O)N5C[C@H](O)C[C@H]5C(=O)NCc5ccc(-c6scnc6C)cc5)C(C)(C)C)CC4)cc3)cc3c2ccn3C2CCCC2)c(=O)[nH]1", "note": "[Compound 1, 1-cyclopentyl-N-[(4,6-dimethyl-2-oxo-1,2-dihydropyridin-3-yl)methyl]-6-[4-({4-[2-({[(2S)-1-[(2S,4R)-4-hydroxy-2-({[4-(4-methyl-1,3-thiazol-5-yl)phenyl]methyl}carbamoyl)pyrrolidin-1-yl]-3,3-dimethyl-1-oxobutan-2-yl]carbamoyl}methoxy)ethyl]piperazin-1-yl}methyl)phenyl]-1H-indole-4-carboxamide]", "values": [{"measurement": "percent target protein degradation class", "result": "B (B = degradation between 30% and 60%)"}]}
{"molecule": "CCN(c1cc(-c2ccc(CN3CCN(CCCOCC(=O)N[C@H](C(=O)N4C[C@H](O)C[C@H]4C(=O)N[C@@H](C)c4ccc(-c5scnc5C)cc4)C(C)(C)C)CC3)cc2)cc(C(=O)NCc2c(C)cc(C)[nH]c2=O)c1C)C1CCOCC1", "note": "[Compound 118, (2S,4R)-1-((S)-2-(2-(3-(4-((3′-(((4,6-dimethyl-2-oxo-1,2-dihydropyridin-3-yl)methyl)carbamoyl)-5′-(ethyl(tetrahydro-2H-pyran-4-yl)amino)-4′-methyl-[1,1′-biphenyl]-4-yl)methyl)piperazin-1-yl)propoxy)acetamido)-3,3-dimethylbutanoyl)-4-hydroxy-N-((S)-1-(4-(4-methylthiazol-5-yl)phenyl)ethyl)pyrrolidine-2-carboxamide]", "values": [{"measurement": "percent target protein degradation class", "result": "A (A = degradation more than 60%)"}]}
{"molecule": "CCN(c1cc(-c2ccc(OCCOCCOCCOCCOCCOCCOCC(=O)N[C@H](C(=O)N3C[C@H](O)C[C@H]3C(=O)NCc3ccc(-c4scnc4C)cc3)C(C)(C)C)cc2)cc(C(=O)NCc2c(C)cc(C)[nH]c2=O)c1C)C1CCOCC1", "note": "[Compound 16, (2S,4R)-1-[(2S)-2-{1-[4-(3-{[(4,6-dimethyl-2-oxo-1,2-dihydropyridin-3-yl)methyl]carbamoyl}-5-[ethyl(oxan-4-yl)amino]-4-methylphenyl)phenyl]-1,4,7,10,13,16,19-heptaoxahenicosan-21-amido}-3,3-dimethylbutanoyl]-4-hydroxy-N-{[4-(4-methyl-1,3-thiazol-5-yl)phenyl]methyl}pyrrolidine-2-carboxamide]", "values": [{"measurement": "percent target protein degradation class", "result": "B (B = degradation between 30% and 60%)"}]}
{"molecule": "CCN(c1cc(-c2ccc(OCCCOCC(=O)N[C@H](C(=O)N3C[C@H](O)C[C@H]3C(=O)NCc3ccc(-c4scnc4C)cc3)C(C)(C)C)cc2)cc(C(=O)NCc2c(C)cc(C)[nH]c2=O)c1C)C1CCOCC1", "note": "[Compound 41, (2S,4R)-1-[(2S)-2-(2-{3-[4-(3-{[(4,6-dimethyl-2-oxo-1,2-dihydropyridin-3-yl)methyl]carbamoyl}-5-[ethyl(oxan-4-yl)amino]-4-methylphenyl)phenoxy]propoxy}acetamido)-3,3-dimethylbutanoyl]-4-hydroxy-N-{[4-(4-methyl-1,3-thiazol-5-yl)phenyl]methyl}pyrrolidine-2-carboxamide]", "values": [{"measurement": "percent target protein degradation class", "result": "A (A = degradation more than 60%)"}]}
{"molecule": "CCN(c1cc(-c2ccc(OCCCCCOCC(=O)N[C@H](C(=O)N3C[C@H](O)C[C@H]3C(=O)N[C@@H](C)c3ccc(-c4scnc4C)cc3)C(C)(C)C)cc2)cc(C(=O)NCc2c(C)cc(C)[nH]c2=O)c1C)C1CCOCC1", "note": "[Compound 94, (2S,4R)-1-((S)-2-(2-((5-((3′-(((4,6-dimethyl-2-oxo-1,2-dihydropyridin-3-yl)methyl)carbamoyl)-5′-(ethyl(tetrahydro-2H-pyran-4-yl)amino)-4′-methyl-[1,1′-biphenyl]-4-yl)oxy)pentyl)oxy)acetamido)-3,3-dimethylbutanoyl)-4-hydroxy-N-((S)-1-(4-(4-methylthiazol-5-yl)phenyl)ethyl)pyrrolidine-2-carboxamide]", "values": [{"measurement": "percent target protein degradation class", "result": "A (A = degradation more than 60%)"}]}
{"molecule": "CCN(c1cc(-c2ccc(OCCOCCOCC(=O)N[C@H](C(=O)N3C[C@H](O)C[C@H]3C(=O)NCc3ccc(-c4scnc4C)cc3)C(C)(C)C)cc2)cc(C(=O)NCc2c(C)cc(C)[nH]c2=O)c1C)C1CCOCC1", "note": "[Compound 31]", "values": [{"measurement": "percent target protein degradation class", "result": "A (A = degradation more than 60%)"}]}
{"molecule": "Cc1cc(C)c(CNC(=O)c2c(C)n(C(C)C3CCN(C(=O)COCCOCCOCC(=O)N[C@H](C(=O)N4C[C@H](O)C[C@H]4C(=O)NCc4ccc(-c5scnc5C)cc4)C(C)(C)C)CC3)c3ccccc23)c(=O)[nH]1", "note": "(stereo partly drawn) [Compound 9, N-[(4,6-dimethyl-2-oxo-1,2-dihydropyridin-3-yl)methyl]-1-{1-[1-(2-{2-[2-({[(2S)-1-[(2S,4R)-4-hydroxy-2-({[4-(4-methyl-1,3-thiazol-5-yl)phenyl]methyl}carbamoyl)pyrrolidin-1-yl]-3,3-dimethyl-1-oxobutan-2-yl]carbamoyl}methoxy)ethoxy]ethoxy}acetyl)piperidin-4-yl]ethyl}-2-methyl-1H-indole-3-carboxamide]", "values": [{"measurement": "percent target protein degradation class", "result": "B (B = degradation between 30% and 60%)"}]}
{"molecule": "CCN(c1cc(-c2ccc(OCCCOCCCCOc3cc(-c4scnc4C)ccc3CNC(=O)[C@@H]3C[C@@H](O)CN3C(=O)[C@H](C(C)C)N3Cc4ccccc4C3=O)cc2)cc(C(=O)NCc2c(C)cc(C)[nH]c2=O)c1C)C1CCOCC1", "note": "[Compound 51, (2S,4R)-N-{[2-(4-{3-[4-(3-{[(4,6-dimethyl-2-oxo-1,2-dihydropyridin-3-yl)methyl]carbamoyl}-5-[ethyl(oxan-4-yl)amino]-4-methylphenyl)phenoxy]propoxy}butoxy)-4-(4-methyl-1,3-thiazol-5-yl)phenyl]methyl}-4-hydroxy-1-[(2S)-3-methyl-2-(1-oxo-2,3-dihydro-1H-isoindol-2-yl)butanoyl]pyrrolidine-2-carboxamide]", "values": [{"measurement": "percent target protein degradation class", "result": "B (B = degradation between 30% and 60%)"}]}
{"molecule": "CCN(c1cc(-c2cccc(OCCOCCOCCOCCOCCOCCNc3cccc4c3C(=O)N(C3CCC(=O)NC3=O)C4=O)c2)cc(C(=O)NCc2c(C)cc(C)[nH]c2=O)c1C)C1CCOCC1", "note": "(stereo not drawn) [Compound 21, N-[(4,6-dimethyl-2-oxo-1,2-dihydropyridin-3-yl)methyl]-5-[3-({1-[2-(2,6-dioxopiperidin-3-yl)-1,3-dioxo-2,3-dihydro-1H-isoindol-4-yl]-4,7,10,13,16-pentaoxa-1-azaoctadecan-18-yl}oxy)phenyl]-3-[ethyl(oxan-4-yl)amino]-2-methylbenzamide]", "values": [{"measurement": "percent target protein degradation class", "result": "B (B = degradation between 30% and 60%)"}]}
{"molecule": "(2R,3S,4R,5S)-3-(3-chloro-2- fluorophenyl)-4-(4-chloro-2- fluorophenyl)-4-cyano-N-[4- ({1-[4-(3-{[(4,6-dimethyl-2- oxo-1,2-dihydropyridin-3- yl)methyl]carbamoyl}-5- [ethyl(oxan-4-yl)amino]-4- methylphenyl)phenyl- 1,4,7,10,13,16- hexaoxaoctadecan-18- yl}carbamoyl)-2- methoxyphenyl]-5-(2,2- dimethylpropyl)pyrrolidine-2- carboxamide [Compound 27]", "values": [{"measurement": "percent target protein degradation class", "result": "B (B = degradation between 30% and 60%)"}]}
{"molecule": "CCN(c1cc(-c2ccc(OCCCCOCC(=O)N[C@H](C(=O)N3C[C@H](O)C[C@H]3C(=O)N[C@@H](C)c3ccc(-c4scnc4C)cc3)C(C)(C)C)cc2)cc(C(=O)NCc2c(C)cc(C)[nH]c2=O)c1C)C1CCOCC1", "note": "[Compound 93]", "values": [{"measurement": "percent target protein degradation class", "result": "A (A = degradation more than 60%)"}]}
{"molecule": "CCN(c1cc(-c2ccc(OCCCCOc3cc(C(C(=O)N4C[C@H](O)C[C@H]4C(=O)N[C@@H](C)c4ccc(-c5scnc5C)cc4)C(C)C)on3)cc2)cc(C(=O)NCc2c(C)cc(C)[nH]c2=O)c1C)C1CCOCC1", "note": "(stereo partly drawn) [Compound 107, (2S,4R)-1-(2-(3-(4-(3′-((4,6-dimethyl-2-oxo-1,2-dihydropyridin-3-yl)methylcarbamoyl)-5′-(ethyl(tetrahydro-2H-pyran-4-yl)amino)-4′-methylbiphenyl-4-yloxy)butoxy)isoxazol-5-yl)-3-methylbutanoyl)-4-hydroxy-N—((S)-1-(4-(4-methylthiazol-5-yl)phenyl)ethyl)pyrrolidine-2-carboxamide]", "values": [{"measurement": "percent target protein degradation class", "result": "A (A = degradation more than 60%)"}]}
{"molecule": "CCN(c1cc(-c2ccc(OCCOCCCCCOc3cc(-c4scnc4C)ccc3CNC(=O)[C@@H]3C[C@@H](O)CN3C(=O)[C@H](C(C)C)N3Cc4ccccc4C3=O)cc2)cc(C(=O)NCc2c(C)cc(C)[nH]c2=O)c1C)C1CCOCC1", "note": "[Compound 49, (2S,4R)-N-({2-[(5-{2-[4-(3-{[(4,6-dimethyl-2-oxo-1,2-dihydropyridin-3-yl)methyl]carbamoyl}-5-[ethyl(oxan-4-yl)amino]-4-methylphenyl)phenoxy]ethoxy}pentyl)oxy]-4-(4-methyl-1,3-thiazol-5-yl)phenyl}methyl)-4-hydroxy-1-[(2S)-3-methyl-2-(1-oxo-2,3-dihydro-1H-isoindol-2-yl)butanoyl]pyrrolidine-2-carboxamide]", "values": [{"measurement": "percent target protein degradation class", "result": "B (B = degradation between 30% and 60%)"}]}
{"molecule": "CCN(c1cc(-c2ccc(OCCOCCOc3cc(C(C(=O)N4C[C@H](O)C[C@H]4C(=O)N[C@@H](C)c4ccc(-c5scnc5C)cc4)C(C)C)on3)cc2)cc(C(=O)NCc2c(C)cc(C)[nH]c2=O)c1C)C1CCOCC1", "note": "(stereo partly drawn) [Compound 105]", "values": [{"measurement": "percent target protein degradation class", "result": "A (A = degradation more than 60%)"}]}
